Results taken from US10723723B2, “Substituted bicycle heterocyclic derivatives useful as ROMK channel inhibitors” (BRISTOL-MYERS SQUIBB COMPANY, priority 2016, dated 2020).

Key:
Type in all cases: cell-based
hROMK = hROMK (Homo sapiens (Human), UniProt P48048); assay: ROMK Manual Patch Clamp Assay; settings: whole-cell manual patch clamp, hROMK current; read-out: ROMK EP IC50
Experimental: Cell culture conditions: Cells were maintained in conditions similar to those for Thallium flux assay. hROMK channel expression was induced by adding 0.6 μg/ml of Doxycycline 16-24 hrs prior to the experiments. On the day of experiment, the cells were dissociated using Versene, resuspended in growth media and plated onto coverslips 15 minutes prior to use.
The cells were voltage clamped at −75 mV in whole-cell configuration using an Axopatch 200b or Multiclamp 700b (Molecular Devices) amplifier controlled by pClamp Software (Molecular Devices). The current was recorded by applying a voltage step to −120 mV every 10 seconds. […] At the end of the experiment, the cells were perfused with bath solution containing 2 mM Ba^2+ to isolate the contribution of hROMK current.
Data analysis: Raw current values (5 traces each for control, different compound concentration and Ba^2+ treatment groups) were exported from Clampfit into Microsoft Excel where the current remaining after application of Ba^2+ was subtracted from raw current to obtain hROMK specific current.

hERG channels = hERG channels (Homo sapiens (Human), UniProt Q12809); assay: hERG Manual Patch Clamp Assay (HEK 293 cells stably expressing hERG channels); settings: human, HEK 293 cells stably expressing hERG channels, pH 7.4
hERG channels, sequence (Q12809 whole entry): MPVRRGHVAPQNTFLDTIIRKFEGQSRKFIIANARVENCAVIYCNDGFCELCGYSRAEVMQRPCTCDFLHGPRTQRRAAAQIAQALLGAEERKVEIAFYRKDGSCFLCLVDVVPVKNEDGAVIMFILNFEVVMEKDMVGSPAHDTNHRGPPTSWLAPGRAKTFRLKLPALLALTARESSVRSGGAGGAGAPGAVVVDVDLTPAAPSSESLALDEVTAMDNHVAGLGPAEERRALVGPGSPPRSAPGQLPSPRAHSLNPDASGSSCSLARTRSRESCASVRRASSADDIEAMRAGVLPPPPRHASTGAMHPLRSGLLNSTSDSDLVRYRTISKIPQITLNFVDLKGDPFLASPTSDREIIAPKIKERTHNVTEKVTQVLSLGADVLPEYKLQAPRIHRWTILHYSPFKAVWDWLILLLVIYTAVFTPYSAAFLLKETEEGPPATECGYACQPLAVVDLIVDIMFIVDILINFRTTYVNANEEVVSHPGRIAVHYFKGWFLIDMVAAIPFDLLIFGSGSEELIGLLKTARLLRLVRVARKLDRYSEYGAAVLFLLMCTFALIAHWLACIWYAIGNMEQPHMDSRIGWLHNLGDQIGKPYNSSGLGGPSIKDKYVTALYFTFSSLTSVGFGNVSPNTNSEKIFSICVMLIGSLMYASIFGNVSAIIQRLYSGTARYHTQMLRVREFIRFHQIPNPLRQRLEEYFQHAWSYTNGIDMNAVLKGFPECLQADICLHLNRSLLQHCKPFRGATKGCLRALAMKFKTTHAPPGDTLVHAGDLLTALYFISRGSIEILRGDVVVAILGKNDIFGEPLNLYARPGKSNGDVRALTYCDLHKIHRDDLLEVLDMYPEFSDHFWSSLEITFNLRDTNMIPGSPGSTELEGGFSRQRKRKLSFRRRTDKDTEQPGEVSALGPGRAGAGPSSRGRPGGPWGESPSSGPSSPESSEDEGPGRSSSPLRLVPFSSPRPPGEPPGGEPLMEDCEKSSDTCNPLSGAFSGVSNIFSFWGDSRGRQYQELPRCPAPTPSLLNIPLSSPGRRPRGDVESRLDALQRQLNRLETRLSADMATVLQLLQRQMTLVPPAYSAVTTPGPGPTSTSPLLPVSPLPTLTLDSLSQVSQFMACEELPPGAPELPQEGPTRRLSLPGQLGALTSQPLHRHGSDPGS
Experimental: hERG electrophysiology assay: The experimental compounds were assessed for hERG activity on HEK 293 cells stably expressing hERG channels using patch clamp technique. Coverslips plated with hERG expressing cells were placed in the experimental chamber and were perfused with a solution composed of (in mM): 140 NaCl, 4 KCl, 1.8 CaCl2), 1 MgCl2, 10 Glucose, 10 HEPES (pH 7.4, NaOH) at room temperature. Borosilicate patch pipettes had tip resistances of 2-4 Mohms when filled with an internal solution containing: 130 KCl, 1 MgCl2, 1 CaCl2), 10 EGTA, 10 HEPES, 5 ATP-K2 (pH 7.2, KOH). The cells were clamped at −80 mV in whole cell configuration using an Axopatch 200B (Axon instruments, Union City, Calif.) patch clamp amplifier controlled by pClamp (Axon instruments) software. Upon formation of a gigaseal, the following voltage protocol was repeatedly (0.05 Hz) applied to record tail currents: depolarization step from −80 mV to +20 mV for 2 seconds followed by a hyperpolarization step to −65 mV (3 seconds) to elicit tail currents. Compounds were applied after stabilization of tail current. First, tail currents were recorded in presence of extracellular solution alone (control) and subsequently, in extracellular solution containing increasing compound concentrations. Each compound concentration was applied for 2-5 minutes. The percentage inhibition at each concentration was calculated as reduction in peak tail current with respect to the peak tail current recorded in the presence of control solution. Data analysis was performed in a custom made template. The percent inhibitions at different concentrations were plotted to obtain a concentration response curve, which was subsequently fitted with a four parameter equation to calculate hERG IC50 value.
A lower hERG % Inhibition value indicates less inhibition of the hERG current

hROMK (human Kir1.1) = hROMK (human Kir1.1) (Homo sapiens (Human), UniProt P48048); assay: Thallium Flux Assay (FluxOR, CHO T-Rex hROMK stable cell line); settings: CHO T-Rex hROMK cells, 10-point concentration response curve; read-out: Human ROMK TH Flux IC50
hROMK (human Kir1.1), sequence (P48048 whole entry): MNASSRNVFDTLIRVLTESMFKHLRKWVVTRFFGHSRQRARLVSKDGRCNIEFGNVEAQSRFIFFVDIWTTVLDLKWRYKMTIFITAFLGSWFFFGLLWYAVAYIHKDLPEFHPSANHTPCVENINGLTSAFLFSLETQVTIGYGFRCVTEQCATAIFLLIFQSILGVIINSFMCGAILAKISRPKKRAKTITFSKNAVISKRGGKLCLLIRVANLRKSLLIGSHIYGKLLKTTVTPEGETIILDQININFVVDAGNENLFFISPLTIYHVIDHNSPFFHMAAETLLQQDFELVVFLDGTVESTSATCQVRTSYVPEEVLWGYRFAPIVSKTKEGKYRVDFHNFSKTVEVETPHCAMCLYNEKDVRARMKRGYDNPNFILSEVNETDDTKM
Experimental: Solutions and reagents: Thallium flux assay was performed using FluxOR kit (F10017, Life Technologies). Loading buffer, assay buffer and stimulus buffer were prepared using kit components.
To prepare 10 ml of loading buffer: 10 μl of FluxOR dye (reconstituted in DMSO) was first added to 100 μl of powerload concentrate and this mix along with 100 μl of Probenicid (100×) was then added to 9.79 ml of HBSS. […] Stimulus buffer was composed of 15 mM Tl2SO4, 0.75 mM K2SO4 in FluxOR chloride free buffer (diluted to 1× using deionized water). The final concentration of Tl2SO4 and K2SO4 in the assay plate was 3 mM and 0.15 mM, respectively.
Plating and induction of cells: The CHO T-Rex hROMK (human Kir1.1) stable cell line was maintained in Ham's F12 media supplemented with 10% FBS, 1% Penicillin-Streptomycin, 500 μg/ml Zeocin and 10 μg/ml Blasticidin at 37° C. in a 5% CO2 incubator. […] The cell suspension was centrifuged at 1200 rpm for 5 min. After discarding the supernatant, the cells were resuspended in fresh growth media and cell concentration was determined using a hemocytometer. […] The assay plate was kept at 37° C. in a 5% CO2 incubator.
Assay protocol: On the day of experiment, media was removed and loading buffer was added (30 μl/well) to the assay plate. The cells were incubated in the loading buffer for 30 minutes at 37° C. The loading buffer was then replaced by assay buffer (30 μl/well) followed by addition of test compounds or controls. […] Each well was read for 90 sec at 2 sec interval and the stimulus buffer was added after 20 seconds of baseline recording. The final DMSO concentration was either 0.5 or 1% in the assay plate. Positive and negative controls were defined by addition of DMSO or 3 μM of a standard ROMK inhibitor, respectively, to the wells instead of a test compound.
A 10-point concentration response curve was used to estimate the IC50 value of test compounds.

hROMK, sequence (P48048 whole entry): as above

Cc1c(C(O)CNCc2ccc3c(ccn3-c3ccc4c(c3)COC4=O)c2)ccc2c1COC2=O (stereo not drawn) [Example 8-I, 5-(1-hydroxy-2-(((1-(1-oxo-1,3-dihydroisobenzofuran-5-yl)-1H-indol-5-yl)methyl)amino)ethyl)-4-methylisobenzofuran-1(3H)-one]
IC50 (hROMK): 42 nM | inhibition at 1 µM (hERG channels): 83% | IC50 (hROMK (human Kir1.1)): 290 nM

Cc1c([C@@H](O)CNCc2cnc(-n3c(C)nnc3C)nc2)ccc2c1COC2=O [Example 47, (R)-5-(2-(((2-(3,5-dimethyl-4H-1,2,4-triazol-4-yl)pyrimidin-5-yl)methyl)amino)-1-hydroxyethyl)-4-methylisobenzofuran-1(3H)-one]
IC50 (hROMK): 420 nM | inhibition at 1 µM (hERG channels): 9.7% | IC50 (hROMK (human Kir1.1)): 100 nM

COc1cc(-n2cnc(CNC[C@H](O)c3ccc4c(c3C)COC4=O)c2)ncc1C#N [Example 51, (R)-6-(4-(((2-hydroxy-2-(4-methyl-1-oxo-1,3-dihydroisobenzofuran-5-yl)ethyl)amino)methyl)-1H-imidazol-1-yl)-4-methoxynicotinonitrile]
IC50 (hROMK): 38 nM | inhibition at 1 µM (hERG channels): 3.4% | IC50 (hROMK (human Kir1.1)): 73 nM

Cc1cc(-n2cc(CNC[C@H](NS(C)(=O)=O)c3ccc4c(c3C)COC4=O)cn2)ncc1C#N [Example 61, (R)-N-(2-(((1-(5-cyano-4-methylpyridin-2-yl)-1H-pyrazol-4-yl)methyl)amino)-1-(4-methyl-1-oxo-1,3-dihydroisobenzofuran-5-yl)ethyl)methanesulfonamide]
IC50 (hROMK): 27 nM | inhibition at 1 µM (hERG channels): 8.4% | IC50 (hROMK (human Kir1.1)): 27 nM

COc1nc(-n2cc(CNC[C@H](O)c3ccc4c(c3C)COC4=O)nn2)cc(C)c1C#N [Example 67, (R)-6-(4-(((2-hydroxy-2-(4-methyl-1-oxo-1,3-dihydroisobenzofuran-5-yl)ethyl)amino)methyl)-1H-1,2,3-triazol-1-yl)-2-methoxy-4-methylnicotinonitrile]
IC50 (hROMK): 9.3 nM | inhibition at 1 µM (hERG channels): 11% | IC50 (hROMK (human Kir1.1)): 20 nM

Cc1cc(-n2cc(CNC[C@H](O)c3ccc4c(c3C)COC4=O)nn2)nc(C)c1C#N [Example 69, (R)-6-(4-(((2-hydroxy-2-(4-methyl-1-oxo-1,3-dihydroisobenzofuran-5-yl)ethyl)amino)methyl)-1H-1,2,3-triazol-1-yl)-2,4-dimethylnicotinonitrile]
IC50 (hROMK): 6.1 nM | inhibition at 1 µM (hERG channels): 15% | IC50 (hROMK (human Kir1.1)): 14 nM

Cc1nc(-n2cc(CNC[C@H](O)c3ccc4c(c3C)COC4=O)cn2)nc(C)c1C#N [Example 87, (R)-2-(4-(((2-hydroxy-2-(4-methyl-1-oxo-1,3-dihydroisobenzofuran-5-yl)ethyl)amino)methyl)-1H-pyrazol-1-yl)-4,6-dimethylpyrimidine-5-carbonitrile]
IC50 (hROMK): 71 nM | inhibition at 1 µM (hERG channels): 7.5% | IC50 (hROMK (human Kir1.1)): 40 nM

Cc1nn(-c2ncc(CNC[C@H](O)c3ccc4c(c3C)COC4=O)cn2)cc1C#N [Example 105, (R)-1-(5-(((2-hydroxy-2-(4-methyl-1-oxo-1,3-dihydroisobenzofuran-5-yl)ethyl)amino)methyl)pyrimidin-2-yl)-3-methyl-1H-pyrazole-4-carbonitrile]
IC50 (hROMK): 7.8 nM | inhibition at 1 µM (hERG channels): 3.4% | IC50 (hROMK (human Kir1.1)): 11 nM

Cc1cn(-c2ncc(CNC[C@H](O)c3ccc4c(c3C)COC4=O)cn2)cn1 [Example 106, (R)-5-(1-hydroxy-2-(((2-(4-methyl-1H-imidazol-1-yl)pyrimidin-5-yl)methyl)amino)ethyl)-4-methylisobenzofuran-1(3H)one]
IC50 (hROMK): 9.2 nM | inhibition at 1 µM (hERG channels): 2.4% | IC50 (hROMK (human Kir1.1)): 26 nM

Cc1cn(-c2ccc(CNC[C@H](O)c3ccc4c(c3C)COC4=O)cn2)cn1 [Example 108, (R)-5-(1-hydroxy-2-(((6-(4-methyl-1H-imidazol-1-yl)pyridin-3-yl)methyl)amino)ethyl)-4-methylisobenzofuran-1(3H)-one]
IC50 (hROMK): 19 nM | inhibition at 1 µM (hERG channels): 7.3% | IC50 (hROMK (human Kir1.1)): 35 nM

Cc1c([C@@H](O)CNCc2cnc(-n3cc(C#N)c(C(F)F)n3)nc2)ccc2c1COC2=O [Example 115, (R)-3-(difluoromethyl)-1-(5-(((2-hydroxy-2-(4-methyl-1-oxo-1,3-dihydroisobenzofuran-5-yl)ethyl)amino)methyl)pyrimidin-2-yl)-1H-pyrazole-4-carbonitrile]
IC50 (hROMK): 20 nM | inhibition at 1 µM (hERG channels): 12% | IC50 (hROMK (human Kir1.1)): 20 nM

COc1cc(-c2ccc(CNC[C@H](O)c3ccc4c(c3C)COC4=O)cn2)ncc1C#N [Example 130, (R)-5′-(((2-hydroxy-2-(4-methyl-1-oxo-1,3-dihydroisobenzofuran-5-yl)ethyl)amino)methyl)-4-methoxy-[2,2′-bipyridine]-5-carbonitrile]
IC50 (hROMK): 1.1 nM | inhibition at 1 µM (hERG channels): 32% | IC50 (hROMK (human Kir1.1)): 8.3 nM

Cc1c([C@@H](O)CNC(=O)c2cnc(-c3ccc4oc(=O)n(C)c4c3)s2)ccc2c1COC2=O [Example 136, (R)-N-(2-hydroxy-2-(4-methyl-1-oxo-1,3-dihydroisobenzofuran-5-yl)ethyl)-2-(3-methyl-oxo-2,3-dihydrobenzo[d]oxazol-5-yl)thiazole-5-carboxamide]
IC50 (hROMK): 86 nM | inhibition at 1 µM (hERG channels): 15% | IC50 (hROMK (human Kir1.1)): 70 nM

COc1cc(-c2cc(CNC[C@H](O)c3ccc4c(c3C)COC4=O)on2)ncc1C#N [Example 137, (R)-6-(5-(((2-hydroxy-2-(4-methyl-1-oxo-1,3-dihydroisobenzofuran-5-yl)ethyl)amino)methyl)isoxazol-3-yl)-4-methoxynicotinonitrile]
IC50 (hROMK): 26 nM | inhibition at 1 µM (hERG channels): 7.6% | IC50 (hROMK (human Kir1.1)): 35 nM

COc1cc(-n2cc(CNC[C@H](O)c3ccc4c(c3C)COC4=O)nn2)ncc1C#N [Example 138, (R)-6-(4-(((2-hydroxy-2-(4-methyl-1-oxo-1,3-dihydroisobenzofuran-5-yl)ethyl)amino)methyl)-1H-1,2,3-triazol-1-yl)-4-methoxynicotinonitrile]
IC50 (hROMK): 18 nM | inhibition at 1 µM (hERG channels): 10% | IC50 (hROMK (human Kir1.1)): 43 nM

Cc1c([C@@H](O)CNCc2cn(-c3ccc4oc(=O)n(C)c4c3)nn2)ccc2c1COC2=O [Example 139, (R)-5-(4-(((2-hydroxy-2-(4-methyl-1-oxo-1,3-dihydroisobenzofuran-5-yl)ethyl)amino)methyl)-1H-1,2,3-triazol-1-yl)-3-methylbenzo[d]oxazol-2(3H)-one]
IC50 (hROMK): 24 nM | inhibition at 1 µM (hERG channels): 5.9% | IC50 (hROMK (human Kir1.1)): 55 nM

Cc1cc(-c2cc(CNC[C@H](O)c3ccc4c(c3C)COC4=O)on2)ncc1C#N [Example 140, (R)-6-(5-(((2-hydroxy-2-(4-methyl-1-oxo-1,3-dihydroisobenzofuran-5-yl)ethyl)amino)methyl)isoxazol-3-yl)-4-methylnicotinonitrile]
IC50 (hROMK): 16 nM | inhibition at 1 µM (hERG channels): 8.6% | IC50 (hROMK (human Kir1.1)): 56 nM

Cc1c([C@@H](O)CNCc2ccc(-n3cc(C#N)cn3)nc2)ccc2c1COC2=O [Example 177]
IC50 (hROMK): 0.15 nM | inhibition at 1 µM (hERG channels): 98% | IC50 (hROMK (human Kir1.1)): 0.57 nM

Cc1nn(-c2ccc(CNC[C@H](O)c3ccc4c(c3C)COC4=O)cn2)cc1C#N [Example 178, (R)-1-(5-(((2-hydroxy-2-(4-methyl-1-oxo-1,3-dihydroisobenzofuran-5-yl)ethyl)amino)methyl)pyridin-2-yl)-3-methyl-1H-pyrazole-4-carbonitrile]
IC50 (hROMK): 2.1 nM | inhibition at 1 µM (hERG channels): 36% | IC50 (hROMK (human Kir1.1)): 3.6 nM
